Columns and labels:
h-NK2 receptor = molecular target: T1, h-NK2 receptor (Homo sapiens, UniProt P21452); assay: Binding experiment for h-NK2 receptor: displacement of [3H]-SR-48968, Sf9 cells; details: cloned human h-NK2 receptors expressed in Sf9 cells, read-out: h-NK2 pIC50 (converted)
T1 construct: expressed in transfected cells; host or cells: Sf9 cells
T1 sequence (P21452 1-398): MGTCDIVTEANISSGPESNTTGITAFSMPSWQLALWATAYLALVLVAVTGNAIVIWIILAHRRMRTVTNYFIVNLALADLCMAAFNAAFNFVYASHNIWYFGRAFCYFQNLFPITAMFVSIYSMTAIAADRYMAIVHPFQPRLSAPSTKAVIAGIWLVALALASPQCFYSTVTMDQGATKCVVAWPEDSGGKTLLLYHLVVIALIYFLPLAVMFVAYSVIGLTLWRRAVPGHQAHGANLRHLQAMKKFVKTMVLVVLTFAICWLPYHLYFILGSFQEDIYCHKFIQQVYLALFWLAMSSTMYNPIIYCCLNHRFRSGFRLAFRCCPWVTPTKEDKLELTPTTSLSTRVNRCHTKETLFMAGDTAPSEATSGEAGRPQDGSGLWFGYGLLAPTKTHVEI
Experimental: (§1) The compounds according to the invention were investigated for interaction with various neurotransmitter receptors, ion channels and transporter binding sites using the radioligand binding technique. Membranes from tissue homogenates or from cells, expressing the receptor or transporter of interests, were incubated with a radioactively labelled substance ([^3H]- or [^125I] ligand) to label a particular receptor. […] Following incubation, labelled membranes were harvested and rinsed with excessive cold buffer to remove non-bound radioactivity by rapid filtration under suction. Membrane bound radioactivity was counted in a scintillation counter and results were expressed in counts per minute (cpm). The compounds were dissolved in DMSO and tested at 10 concentrations ranging from 10^−10 to 10^−5 M. The ability of the compounds according to the invention to displace [^3H]-Substance P from cloned human h-NK1 receptors expressed in CHO cells, to displace [^3H]-SR-48968 from cloned human h-NK2 receptors expressed in Sf9 cells, and to displace [^3H]-SR-142801 from cloned human h-NK3 receptors expressed in CHO cells was evaluated.

h-NK1 receptor = molecular target: T2, h-NK1 receptor (Homo sapiens, UniProt P25103); assay: Binding experiment for h-NK1 receptor: displacement of [3H]-Substance P, CHO cells; details: cloned human h-NK1 receptors expressed in CHO cells, read-out: h-NK1 pIC50 (converted)
T2 construct: expressed in transfected cells; host or cells: CHO cells
Experimental: as §1

h-NK3 receptor = molecular target: T3, h-NK3 receptor (Homo sapiens, UniProt P29371); assay: Binding experiment for h-NK3 receptor: displacement of [3H]-SR-142801, CHO cells; details: cloned human h-NK3 receptors expressed in CHO cells, read-out: h-NK3 pIC50 (converted)
T3 construct: expressed in transfected cells; host or cells: CHO cells
T3 sequence (P29371 1-465): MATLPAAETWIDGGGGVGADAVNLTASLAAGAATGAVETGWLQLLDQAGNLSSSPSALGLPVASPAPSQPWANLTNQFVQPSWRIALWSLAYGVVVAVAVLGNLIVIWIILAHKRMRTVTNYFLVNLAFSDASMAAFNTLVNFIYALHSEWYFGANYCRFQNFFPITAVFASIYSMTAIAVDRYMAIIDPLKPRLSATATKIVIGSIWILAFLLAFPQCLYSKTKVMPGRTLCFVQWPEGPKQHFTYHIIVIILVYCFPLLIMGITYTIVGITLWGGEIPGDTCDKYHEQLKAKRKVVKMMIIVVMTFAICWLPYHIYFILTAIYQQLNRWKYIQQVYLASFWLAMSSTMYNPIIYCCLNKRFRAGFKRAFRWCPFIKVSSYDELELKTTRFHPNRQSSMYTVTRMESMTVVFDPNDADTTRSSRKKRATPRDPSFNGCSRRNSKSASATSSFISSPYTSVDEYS
Experimental: as §1

T2 sequence (P25103 whole entry): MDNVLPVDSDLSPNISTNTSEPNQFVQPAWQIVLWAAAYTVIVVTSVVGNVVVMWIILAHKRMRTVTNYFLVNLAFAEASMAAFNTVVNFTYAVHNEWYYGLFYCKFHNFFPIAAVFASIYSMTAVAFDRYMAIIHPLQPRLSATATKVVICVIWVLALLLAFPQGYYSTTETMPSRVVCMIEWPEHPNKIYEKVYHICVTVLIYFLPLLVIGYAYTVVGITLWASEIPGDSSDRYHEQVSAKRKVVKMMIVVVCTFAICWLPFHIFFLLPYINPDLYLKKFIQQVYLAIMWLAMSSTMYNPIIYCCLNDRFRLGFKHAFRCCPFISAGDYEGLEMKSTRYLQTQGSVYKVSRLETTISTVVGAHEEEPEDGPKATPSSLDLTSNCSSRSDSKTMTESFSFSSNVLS

SMILES | melting point | IC50 (h-NK2 receptor) | IC50 (h-NK1 receptor) | IC50 (h-NK3 receptor)
O=C(c1cc(C(F)(F)F)cc(C(F)(F)F)c1)N1CCC(N2CCN(C3CCN(Cc4nc5ccccc5[nH]4)CC3)CC2)CC1Cc1ccccc1 (stereo not shown) [Compound 7] | 135 °C |  |  | 
COc1cc(N)c(Cl)cc1C(=O)N1CCC(N2CCN([C@H]3CCN(C(=O)c4cc(C(F)(F)F)cc(C(F)(F)F)c4)[C@H](Cc4ccccc4)C3)CC2)CC1 [Compound 64] |  | 398 nM | 7.94 nM | 398 nM
